Measurements: US20080242594A1, “Methods for Promoting Stem Cell Proliferation and Survival” (priority 2005, published 2008)

Tested on: adult rats
Test: Intraventricular infusion in normal adult rats, BrdU labeled cells
Format: in vivo, rat
Conditions: for concentration in the pump at which maximal effects were achieved: constant FGF2 2.5 μg/ml
Experimental: In-vivo Experiments: All drugs were infused over one week using an Alzet osmotic pump (model 2001 delivering at a rate of 1 μl/hr for seven days). Briefly, an intracerebral cannula connected to the pump was inserted into the right lateral ventricle using the following stereotaxic coordinates: bregma AP +0, Lateral −1.5 mm dorso-ventral 3.3 mm. Animals received IP injection of the tracer BrdU (50 mg/kg) every 12 hours for 5 days beginning on day one post-operatively to label dividing cells.
Immuno-positive cells were analyzed by confocal microscopy counted using a non-biased system on slides obtained from homologous coronal slices containing the infarct of each animal at the position between +0.2 and −3.8 mm from the center of the bregma according to stereotaxic coordinates. Cells were enumerated in […] regions of interest, on both the ipsilateral and contralateral hemispheres (to cannula, or cannula and ischemic focus): subventricular zone (SVZ), corpus callosum and white matter and the peri-infarct cortex.
The effect of intraventricular administration of Delta-4 was studied in adult rats. As in other tissues, the numbers of stem cells in the adult CNS are precisely controlled. […] In vivo manipulations were designed to ask if Notch ligands can act alone or substantially alter the effect of FGF2 on the numbers of proliferating cells in the SVZ of the normal brain. Animals (N=5-6 per treatment) were fitted with a mini-osmotic pump administering artificial cerebrospinal fluid (ACSF, vehicle), FGF2, Delta-4, or a combination FGF2+Delta-4 for one week into the ventricles of three-month old rats. Animals were also given twice-daily injections of bromodeoxyuridine (BrdU) from post-op days two to six to label cells generated during this time window. Two groups of animals were analyzed at day 7 and day 45 relative to the initiation of protein delivery. Delta-4 doses were chosen to provide a roughly equal concentration in the rat adult cerebrospinal fluid as in the cell culture medium of our in vitro experiments.

Substance: Delta-4: soluble Notch ligand Delta-4 (1389-D4) from R&D
- number of BrdU+ cells in SVZ, corpus callosum and cerebral cortex (45 days, relative to FGF2 treated animals): increased number of BrdU+ cells
- concentration in the pump at which maximal effects were achieved (contralateral site): ~4.2 µg/mL
- number of proliferating cells / BrdU incorporation (day 7, contralateral site): induced significant increases in BrdU incorporation
- number of BrdU labeled cells in SVZ, corpus callosum and cortex (day 7, hemisphere ipsilateral to the cannula): increased the number of BrdU labeled cells
- concentration in the pump at which maximal effects were achieved (ipsilateral site): approximately 0.42 μg/ml
